Data: patent US11180809B2, “Biological markers for identifying patients for treatment with abiraterone acetate” (JANSSEN PHARMACEUTICA NV, priority 2014, dated 2021)

What was measured:
[1] = test system: metastatic castration-resistant prostate cancer (mCRPC); assay: COU-AA-302: multivariate biomarker panel classifier (low/high risk) versus radiographic progression free survival, independent test set; assay type: in vivo, human; conditions: test set (AA group), multivariate panel cutpoint 0.9977
Text: (§1) COU-AA-302 is a Phase 3, multinational, randomized, double-blind, placebo-controlled study comparing the efficacy and safety of AA and prednisone (AA+P) to placebo and prednisone (Placebo+P) in medically or surgically castrated asymptomatic or mildly symptomatic men with mCRPC who have not received cytotoxic chemotherapy. Patients were assigned in a 1:1 ratio to receive either AA+P or Placebo+P and were stratified based on ECOG performance status of 0 or 1, as discussed in Clinical Study Protocol: A Phase 3 Randomized, Double-blind, Placebo-controlled Study of Abiraterone Acetate (CB7630) Plus Prednisone in Asymptomatic or Mildly Symptomatic Subjects with Metastatic Castration Resistant Prostate Cancer. Protocol COU-AA-302; EudraCT No. 2008-008004-41; 9 Jul. 2012.
(§2) All subjects in Study COU-AA-302, regardless of treatment group, received concurrent prednisone. See Clinical Study Report: CSR COU-AA-302 2012. A Phase 3, Randomized, Double-Blind, Placebo-Controlled Study of Abiraterone Acetate Plus Prednisone in Asymptomatic or Mildly Symptomatic Subjects With Metastatic Castration-Resistant Prostate Cancer. Issue Date: 26 Oct. 2012. Subjects who received AA+P are referred to herein as the “AA group” and in tables as “AA.” Subjects who received Placebo+P are referred to herein as the “Placebo group” and in tables as “Placebo.” Additional study related details can be obtained from the COU-AA-302 clinical study protocol or clinical study report.
A multivariate biomarker panel was identified using penalized regression to define a classifier that predicts radiographic progression free survival. The model was defined using an elastic net approach for feature selection and model specification. Data was separated into training and testing sets using a 70%-30% split. Within the training data, 10-fold cross-validation was used to define model parameters. Elastic net models have two parameters: alpha and lambda. Alpha is the elastic net penalty and determines the specific mixture of penalties that will be applied to limit complexity of the model. Lambda is the regularization penalty which determines the magnitude of the parameter used to limit complexity. After optimizing alpha and lambda using cross-validation, the values were used to define the cox regression model on the training data. The model is used to predict the relative risk of progression free-survival for all subjects in the training set. Then, time-dependent ROC analysis was used to determine the predictive power of the model and dichotomize the relative risk into two groups associated with low and high risk at the timepoint at which 90% of subjects with radiographic progression had observed recurrence of disease (t=20.48 months). This model, consisting of regression coefficients, timepoint and cutoff to discriminate between low and high risk, was applied to predict the relative risk of subjects in the independent test data and evaluate the predictive power and association with time to event of the classifier. This evaluation is repeated on the placebo data to confirm that the classifier is predictive of response to Abiraterone and not prognostic of outcome independent of treatment. Features used in the model building process included all single gene markers detected in greater than 50% of samples to exclude low expressing genes. The model was optimized to alpha=0.5 and lambda=0.209. Using these parameters, the optimized survival models were defined as described in Table 6.
Table 7 lists the predictive metrics which describe the performance of these models on the independent test and placebo group data.
Table 8 lists the statistics describing the association between classifier predictions and time to radiographic progression free survival.

[2] = test system: metastatic castration-resistant prostate cancer (mCRPC); assay: COU-AA-302 Phase 3 study: Cox regression association of tumor mRNA biomarker expression with rPFS/OS within the AA group; assay type: in vivo, human
Text: as §1, §2
Formalin fixed paraffin embedded (FFPE) tumor samples from 258 subjects who optionally consented for RNA analysis were collected and shipped to the central laboratory (Covance, Ind.) for RNA analysis. FFPE samples from 152 subjects had sufficient RNA for TaqMan® Low Density Array (TLDA) analysis. Samples from the other 106 subjects were excluded either due to lack of tumor or low RNA yield. Of the 152 samples evaluated by TLDA, samples from 42 subjects were excluded from data analysis due to technical failures (no detectable gene expression or batch effects induced by microdissection of samples with low tumor content or low RNA input mass [<250 ng of total RNA]). The remaining evaluable samples from 110 subjects (Biomarker population) who were part of the ITT population (10%) and who had drug exposure with clinical data for at least one of the efficacy endpoints (rPFS, OS) were included in the analysis. Samples from these subjects were included in the mRNA analysis using the TaqMan® array microfluidic cards.
Raw CT values were filtered to remove values greater than 30. Quadruple replicate CT values were summarized using the geometric mean. Expression values were calculated using the comparative CT method as described in Schmittgen T D, Livak K J. Analyzing real-time PCR data by the comparative Ct method. Nature Protocols. 2008; 3:1101-1108. Briefly, a normalization factor was calculated for each sample using the geometric mean of housekeeping genes (ACTB and GAPDH). Relative expression values of all other transcripts were quantified as the difference between CT and the normalization factor. Transcript expression was calculated by the negation of the relative expression values to account for the inverse relationship between expression and CT. This is equivalent to the log 2 transform of 2^(-DeltaCT).
All statistical tests were interpreted at 5% significance levels (two-sided). For determination of specificity of biomarker association with clinical endpoints in AA group, a P<0.05 in the AA group and a P≥0.2 in the placebo group is required. Demographics and baseline characteristics were compared between the biomarker population and the ITT population using ANOVA (continuous variables) or Chi-Square (categorical variables) tests. […]

[3] = AA group (AA+prednisone), Cox regression with baseline ECOG, continuous log2 expression, (95% CI)
[4] = AA group, Cox regression with baseline ECOG, (95% CI)
[5] = AA group, multivariate Cox regression model

CC(=O)O[C@H]1CC[C@@]2(C)C(=CC[C@@H]3[C@@H]2CC[C@]2(C)C(c4cccnc4)=CC[C@@H]32)C1 [AA, abiraterone acetate]
HR, High versus Low risk, time to radiographic progression free survival ([1]; 95CI in next cell): 6.25
Median time to radiographic progression free survival, High risk ([1]; 95CI in next cell): 8.2
Event/Total (Perc), rPFS, High risk ([1]; percentage of events): (100.0)
Event/Total (Perc), rPFS, Low risk ([1]; percentage of events): (40.0)
Event/Total, rPFS, High risk ([1]; timepoint 20.4813): 4/4
Event/Total, rPFS, Low risk ([1]; timepoint 20.4813): 6/15
HR, association of ANLN expression with rPFS (IND) [2, 3]: 0.84 (0.72, 0.96)
HR, association of ANLN expression with rPFS (INV) [2, 3]: 0.80 (0.69, 0.93)
reduction of the hazard of rPFS event per unit increase in relative expression of ANLN ([2]; AA group, 1-0.84, unit = 2-fold difference relative to reference gene): 16%
HR, association of CYP17A1 and cofactors group composite score with OS ([2]; AA group, Cox regression): 0.20
HR, association of androgen controlled group composite score with OS ([2]; AA group, Cox regression): 0.31
HR, association of proliferation pathway module with rPFS (INV) ([2]; AA group, Cox regression): 0.63
HR, association of CYP17A1 and cofactors group composite score with rPFS (INV) [2, 4]: 0.71 (0.37, 1.36)
HR, association of HSD17B10 expression with rPFS (IND) [2, 4]: 0.78 (0.62, 0.98)
HR, association of HSD17B10 expression with rPFS (INV) [2, 4]: 0.76 (0.62, 0.94)
HR, association of NUSAP1 expression with rPFS (IND) [2, 4]: 0.82 (0.67, 1.00)
HR, association of NUSAP1 expression with rPFS (INV) [2, 4]: 0.78 (0.64, 0.95)
HR, association of SRD5A1 expression with rPFS (IND) [2, 4]: 0.80 (0.65, 0.98)
HR, association of SRD5A1 expression with rPFS (INV) [2, 4]: 0.83 (0.68, 1.00)
HR, association of UBE2C expression with rPFS (IND) [2, 4]: 0.85 (0.74, 0.98)
HR, association of UBE2C expression with rPFS (INV) [2, 4]: 0.81 (0.71, 0.93)
HR, association of ANLN expression with rPFS (IND), corrected for RNA extraction methodology [2, 5]: 0.86
HR, association of HSD17B10 expression with rPFS (IND), corrected for RNA extraction methodology [2, 5]: 0.78
HR, association of NUSAP1 expression with rPFS (IND), corrected for RNA extraction methodology [2, 5]: 0.78
HR, association of SRD5A1 expression with rPFS (IND), corrected for RNA extraction methodology [2, 5]: 0.79
HR, association of UBE2C expression with rPFS (IND), corrected for RNA extraction methodology ([2]; AA group, multivariate Cox regression model, trend of association): 0.88
